34 molecules from ChEMBL document CHEMBL1201862, “PubChem BioAssay data set” (2004) can be followed below.

Molecules are shown by their SMILES. The source made the active and inactive calls.

A short description of series [1]: Luminescence Cell-Based Dose Retest to Confirm Inhibitors of Cancer Stem Cells. [Related pubchem assays (depositor defined):AID2717, AID2721]. It counts as functional. Conditions: Homo sapiens.
In another series the target is Cytochrome P450 2D6 (Homo sapiens, UniProt P10635).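 Also: CYP2D6 member of a cytochrome P450 panel assay.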
Series [2] has as its target T1, Heat shock factor protein 1 (Mus musculus, UniProt P38532).
T1 sequence (P38532 whole entry): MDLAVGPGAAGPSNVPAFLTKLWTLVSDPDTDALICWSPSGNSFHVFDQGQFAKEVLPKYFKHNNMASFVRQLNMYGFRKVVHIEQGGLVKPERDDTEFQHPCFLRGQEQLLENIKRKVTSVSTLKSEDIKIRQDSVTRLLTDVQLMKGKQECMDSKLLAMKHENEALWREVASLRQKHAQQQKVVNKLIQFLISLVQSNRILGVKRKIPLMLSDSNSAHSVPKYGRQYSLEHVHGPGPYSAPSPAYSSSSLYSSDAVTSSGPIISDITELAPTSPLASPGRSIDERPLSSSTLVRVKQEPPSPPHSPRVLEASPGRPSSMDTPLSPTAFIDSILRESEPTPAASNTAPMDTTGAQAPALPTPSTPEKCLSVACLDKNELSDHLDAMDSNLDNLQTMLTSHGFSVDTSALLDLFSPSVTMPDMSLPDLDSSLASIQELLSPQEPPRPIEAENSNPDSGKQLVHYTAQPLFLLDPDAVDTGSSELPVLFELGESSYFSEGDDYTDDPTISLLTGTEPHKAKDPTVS
Put plainly: enhancement of HSF1-driven luciferase signal – cell-based, NIH3T3, luminescence, dose retest, confirmation (AID 435004).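 Also: stress induced by proteasome inhibitor MG132 added 30 min after compound; luciferase reporter driven by HSF1 response element in NIH3T3 cells; actives raise luminescence as potentiators of the MG132 stress response.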 The series is classed as functional.

Series [3] can be described thus: luciferase reporter signal suppression in cells – H4 neuroglioma cells, luminescence, dose response (AID 1990). It counts as functional, cell-based.
Series [4] is described as follows: alpha-synuclein stem-loop luciferase translation blockers – H4 neuroglioma cells, luminescence, confirmation (AID 1988). The series is classed as functional, cell-based.
The nature of series [5]: Luminescence Cell-Based Dose Response HTS to Identify Inhibitors of 5'UTR Stem-Loop Driven Prion Protein mRNA Translation in H4 Neuroglioblastoma Cells. [Related pubchem assays: 1827 (Project Summary), 1813 (Primary HTS)]. It counts as functional.
In series [6] the target is T2, Replicative DNA helicase DnaB (Mycobacterium tuberculosis, UniProt P9WMR3).
T2 sequence (P9WMR3 whole entry): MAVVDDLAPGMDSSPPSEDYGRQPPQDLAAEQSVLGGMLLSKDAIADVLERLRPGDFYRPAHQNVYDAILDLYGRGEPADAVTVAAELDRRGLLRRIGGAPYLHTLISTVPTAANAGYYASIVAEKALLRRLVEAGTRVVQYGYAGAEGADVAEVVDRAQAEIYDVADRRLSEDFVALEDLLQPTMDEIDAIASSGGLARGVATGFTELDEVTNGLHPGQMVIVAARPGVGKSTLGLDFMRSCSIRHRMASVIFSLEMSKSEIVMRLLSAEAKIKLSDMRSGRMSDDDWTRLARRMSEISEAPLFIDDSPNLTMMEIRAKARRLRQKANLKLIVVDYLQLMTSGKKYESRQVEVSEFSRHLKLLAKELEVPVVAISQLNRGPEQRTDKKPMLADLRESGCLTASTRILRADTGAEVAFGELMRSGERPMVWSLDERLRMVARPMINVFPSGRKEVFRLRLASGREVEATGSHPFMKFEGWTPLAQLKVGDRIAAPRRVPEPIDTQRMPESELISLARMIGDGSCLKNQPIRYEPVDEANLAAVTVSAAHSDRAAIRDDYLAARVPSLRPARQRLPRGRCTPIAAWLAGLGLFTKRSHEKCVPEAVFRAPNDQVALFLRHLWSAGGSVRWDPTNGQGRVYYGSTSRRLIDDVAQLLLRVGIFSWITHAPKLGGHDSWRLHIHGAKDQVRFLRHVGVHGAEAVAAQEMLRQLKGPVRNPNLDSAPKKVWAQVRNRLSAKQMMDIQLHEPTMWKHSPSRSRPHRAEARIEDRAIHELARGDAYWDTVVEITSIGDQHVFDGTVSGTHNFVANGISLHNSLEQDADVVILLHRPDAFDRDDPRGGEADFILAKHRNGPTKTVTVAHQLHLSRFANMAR
Put plainly: DnaB intein splicing inhibitors, dose response, biochemical, cell-free fluorescence (AID 449749). The series is classed as functional.

The target of the next series is T3, Protein RecA (Mycobacterium tuberculosis, UniProt P9WHJ3).
T3 sequence (P9WHJ3 whole entry): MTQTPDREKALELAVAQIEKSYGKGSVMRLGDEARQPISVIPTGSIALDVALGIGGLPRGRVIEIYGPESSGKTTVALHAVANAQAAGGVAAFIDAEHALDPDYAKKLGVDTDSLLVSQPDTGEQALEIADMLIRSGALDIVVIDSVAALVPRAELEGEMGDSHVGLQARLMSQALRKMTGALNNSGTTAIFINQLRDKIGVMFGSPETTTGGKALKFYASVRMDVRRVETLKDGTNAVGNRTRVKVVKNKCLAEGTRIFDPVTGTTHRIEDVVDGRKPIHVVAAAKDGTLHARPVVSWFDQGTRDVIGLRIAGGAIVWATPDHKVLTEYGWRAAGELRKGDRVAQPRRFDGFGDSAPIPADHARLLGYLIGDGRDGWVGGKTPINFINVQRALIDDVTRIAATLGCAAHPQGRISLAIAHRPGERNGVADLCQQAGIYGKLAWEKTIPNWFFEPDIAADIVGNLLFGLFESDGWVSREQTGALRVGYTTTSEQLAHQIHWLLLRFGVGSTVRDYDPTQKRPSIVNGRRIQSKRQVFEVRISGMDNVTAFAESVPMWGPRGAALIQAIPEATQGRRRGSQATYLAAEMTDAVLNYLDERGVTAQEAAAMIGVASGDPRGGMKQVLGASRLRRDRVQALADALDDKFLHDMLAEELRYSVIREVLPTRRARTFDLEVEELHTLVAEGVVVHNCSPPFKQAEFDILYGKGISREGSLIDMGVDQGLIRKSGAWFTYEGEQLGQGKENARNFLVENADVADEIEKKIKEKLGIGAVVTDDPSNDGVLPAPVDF
Put plainly: Fluorescence Cell-Free Homogeneous Dose Retest to Identify Inhibitors of RecA-Intein Splicing Activity. [Related pubchem assays (depositor defined):AID2097, AID2223, AID489010, AID492950]. The series is classed as functional.

For the next series, the target named is T4, Cytochrome P450 1A2 (Homo sapiens, UniProt P05177).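 Also: PubChem cytochrome P450 panel assay, CYP1A2 panel member.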
T4 sequence (P05177 whole entry): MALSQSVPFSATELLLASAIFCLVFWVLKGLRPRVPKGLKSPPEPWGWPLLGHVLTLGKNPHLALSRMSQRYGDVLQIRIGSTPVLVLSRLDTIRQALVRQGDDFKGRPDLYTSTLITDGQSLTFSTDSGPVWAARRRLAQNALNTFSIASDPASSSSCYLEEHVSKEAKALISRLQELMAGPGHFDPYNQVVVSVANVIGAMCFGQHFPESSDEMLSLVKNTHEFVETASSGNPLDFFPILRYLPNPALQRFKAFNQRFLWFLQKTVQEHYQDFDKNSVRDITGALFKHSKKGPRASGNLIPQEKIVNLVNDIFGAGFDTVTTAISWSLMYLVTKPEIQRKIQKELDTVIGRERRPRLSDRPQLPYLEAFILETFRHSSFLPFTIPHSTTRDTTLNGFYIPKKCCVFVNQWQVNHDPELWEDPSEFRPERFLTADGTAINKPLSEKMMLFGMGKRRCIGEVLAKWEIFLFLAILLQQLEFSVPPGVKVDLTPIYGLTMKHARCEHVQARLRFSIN

The next series addresses Cytochrome P450 2C19 (Homo sapiens, UniProt P33261). Put plainly: Cytochrome panel assay with activity outcomes. Panel member name: p450-cyp2c19 Compounds with AC50 equal or less than 10 uM are considered active. The series is classed as functional.
Another series has as its target Cytochrome P450 3A4 (Homo sapiens, UniProt P08684).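 Also: CYP3A4 tested as one member of a cytochrome P450 panel screen.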
In another series the test system is INS1. The series is described as follows: INS-1E survival protection against cytokine death – cell-based, luminescence, retest, dose response (AID 449756).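 Also: cell death triggered by IL-1 beta plus TNF-alpha plus IFN-gamma mixture; protective hits raise ATP signal compared with cytokine alone wells.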 It counts as functional. Conditions: Rattus norvegicus, INS1.
Series [7] can be described thus: Trypanosoma cruzi growth suppression in host cells – NIH3T3 host cells, beta-gal luminescence, confirmation (AID 2044).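 Also: intracellular parasites grown in NIH/3T3 mouse fibroblasts as host cells; luminescent beta-galactosidase reporter signal from transgenic T. cruzi replicating inside host cells; inhibitors lower the luminescence signal.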 It counts as functional, cell-based.
Series [8] in a line: NIH3T3 cell viability loss – ATP luminescence, mouse fibroblasts, counter-screen, dose response (AID 2010).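 Also: cells exposed to compound for about 90 hours before reading.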 It counts as functional, cell-based.

Cytochrome P450 2C19, sequence (P33261 whole entry): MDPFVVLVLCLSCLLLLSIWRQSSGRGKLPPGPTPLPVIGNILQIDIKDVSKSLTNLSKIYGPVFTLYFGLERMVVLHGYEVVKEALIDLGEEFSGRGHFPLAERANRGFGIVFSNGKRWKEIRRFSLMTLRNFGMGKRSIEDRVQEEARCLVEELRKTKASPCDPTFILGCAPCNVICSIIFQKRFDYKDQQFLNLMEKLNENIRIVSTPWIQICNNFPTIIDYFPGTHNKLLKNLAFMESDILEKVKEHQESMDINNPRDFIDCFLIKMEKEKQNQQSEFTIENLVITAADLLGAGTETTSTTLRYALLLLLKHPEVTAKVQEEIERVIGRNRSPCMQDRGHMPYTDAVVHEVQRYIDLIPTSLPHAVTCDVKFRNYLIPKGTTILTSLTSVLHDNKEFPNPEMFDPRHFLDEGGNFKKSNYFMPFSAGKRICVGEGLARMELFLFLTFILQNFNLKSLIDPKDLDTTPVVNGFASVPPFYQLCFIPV
Cytochrome P450 2D6, sequence (P10635 whole entry): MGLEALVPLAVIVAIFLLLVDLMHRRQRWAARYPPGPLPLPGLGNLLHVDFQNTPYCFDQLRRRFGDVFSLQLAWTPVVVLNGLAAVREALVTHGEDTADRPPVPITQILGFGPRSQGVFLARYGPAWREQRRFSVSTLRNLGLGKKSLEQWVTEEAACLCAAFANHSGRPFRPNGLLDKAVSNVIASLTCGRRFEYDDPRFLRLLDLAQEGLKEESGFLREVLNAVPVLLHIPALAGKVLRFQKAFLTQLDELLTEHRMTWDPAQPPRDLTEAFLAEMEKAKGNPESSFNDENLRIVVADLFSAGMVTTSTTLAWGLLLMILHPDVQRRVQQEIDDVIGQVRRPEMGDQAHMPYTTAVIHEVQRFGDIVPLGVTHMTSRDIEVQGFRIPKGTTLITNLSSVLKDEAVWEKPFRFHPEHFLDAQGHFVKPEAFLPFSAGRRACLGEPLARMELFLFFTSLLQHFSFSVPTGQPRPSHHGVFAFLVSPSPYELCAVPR
Cytochrome P450 3A4, sequence (P08684 whole entry): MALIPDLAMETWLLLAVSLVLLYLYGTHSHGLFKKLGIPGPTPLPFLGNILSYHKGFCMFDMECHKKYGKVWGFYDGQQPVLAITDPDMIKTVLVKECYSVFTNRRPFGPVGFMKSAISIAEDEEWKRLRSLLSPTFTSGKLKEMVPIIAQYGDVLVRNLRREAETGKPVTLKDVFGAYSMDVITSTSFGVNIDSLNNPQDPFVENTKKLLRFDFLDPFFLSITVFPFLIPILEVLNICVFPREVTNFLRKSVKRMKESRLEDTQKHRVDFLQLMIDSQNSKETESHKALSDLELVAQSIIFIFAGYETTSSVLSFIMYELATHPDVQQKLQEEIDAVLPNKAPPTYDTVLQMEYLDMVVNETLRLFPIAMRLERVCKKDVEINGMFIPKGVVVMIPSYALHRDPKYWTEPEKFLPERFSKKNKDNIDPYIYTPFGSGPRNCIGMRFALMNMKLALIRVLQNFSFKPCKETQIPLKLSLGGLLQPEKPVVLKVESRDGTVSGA

The term AC50 denotes the concentration at which the activity in the assay is half-maximal. For `CC(=O)N1c2ccc(Cl)cc2C2C=CCC2C1c1cccc2ccccc12` (stereo not drawn), the AC50 in [1] was 2.27 µM (active).
Same read-out and setting: then `COc1cc(C(=O)OC2CC3CCC2(C)C3(C)C)ccc1OC(C)=O` (stereo not drawn), with 3.75 µM (active).
Turning to `COc1ncc2nc(CCc3ccccc3)c(=O)n(Cc3cccs3)c2n1`, the AC50 on Cytochrome P450 2D6 was 12.6 µM (inconclusive).
Broadly, the EC50 is the concentration giving half of the maximal effect. For `Cc1ccc(F)cc1NC(=O)N1CCCN(c2ccc(C(F)(F)F)cn2)CC1`, the EC50 in series [2] was > 260 µM (inactive).
For the molecule `CCOC(=O)C1CCN(Cc2cnc(Oc3ccc(OC)cc3)s2)CC1`, the AC50 at Cytochrome P450 2D6 is 22.4 µM (inconclusive).
As to `CCN(CC)C(=O)CSc1ncnc2sc(C)c(C)c12`, the EC50 in series [2] was > 260 µM (inactive).
As for `C=CCCC(=O)Nc1nc(C)c(-c2csc(Nc3cc(OC)ccc3OC)n2)s1`, the EC50 in series [3] was > 120 µM (not active); in series [4] it was 5.52 µM (active); in series [5] it was 12.1 µM (active). Further, in [1], the concentration at half-maximal activity (AC50) is 0.71 µM (active).
Consider `O=C(CSc1ncnc2c1nnn2-c1ccc(F)cc1)NCC1CCCO1` (stereo not drawn), for which the EC50 in [2] was 36.2 µM (active); on Protein RecA, 3.67 µM (active). For the same molecule, the AC50 in series [6] was 3.14 µM (active).
`COc1c(O)ccc2c1CN1CCc3cc4c(cc3[C@@H]1C2)OCO4`: the AC50 on Cytochrome P450 1A2 was 0.501 µM (inconclusive); on Cytochrome P450 2C19 (read-out: AC50) it was 3.98 µM (inconclusive); on Cytochrome P450 3A4, 5.01 µM (inconclusive).
In the case of `CCN1CCN(Cc2ccc(OCc3ccccc3)cc2)CC1`, in series [1], the AC50 was 1.89 µM (active).
On to `O=C(NC(=S)Nc1ccccc1C(F)(F)F)c1ccccc1F`, for which the EC50 in [2] was 143 µM (active).
Take `CC(NC(=O)C1CCC(C(=O)NC(C)c2ccccc2)CC1)c1ccccc1` (stereo not drawn): the AC50 in the series on INS1 is > 260 µM (inactive); in series [1], > 195 µM (inactive).
`O=C(O)CCc1ccc(-c2ccc(Br)cc2)n1Cc1ccco1`: in series [2], the EC50 was > 260 µM (inactive).
Still for that read-out and setting: then `CCOc1ccc(OCCC(=O)OCC(=O)N2CCN(S(=O)(=O)c3ccc(Cl)cc3)CC2)cc1`, with 18.5 µM (active).
For the molecule `CC(C)C(=O)NCCc1nc2ccccc2n1CCCOc1ccc(Cl)cc1`, the AC50 at Cytochrome P450 1A2 is 28.2 µM (inconclusive).
Turning to `O=C(NNc1c(F)c(F)cc(F)c1F)c1ccc(Cl)nc1`, the EC50 in [2] was > 260 µM (inactive).
`CCOc1ncccc1C(=O)N(C)CC1COc2ccccc2O1` (stereo not drawn): in series [2], the EC50 is > 260 µM (inactive).
For `CCOc1ccc(NC(=O)Nc2ccc(Cc3ccncc3)cc2)cc1`, the AC50 in series [1] is 8.67 µM (active).
For the molecule `Fc1ccc(Nc2ccnc(-c3ccccc3C(F)(F)F)n2)cc1`, the half-maximal activity concentration (AC50) on Cytochrome P450 2D6 was 39.8 µM (inconclusive).
`CC[C@@H]1CC(=O)N(SC[C@H](N)C(=O)O)C1=O`: the AC50 entry at Cytochrome P450 2C19 was “inconclusive”.
Still for that read-out and setting: then `CN1CCN(C2CC(=O)N(Cc3ccc(N4CCCC4=O)cc3)C2=O)CC1` (stereo not drawn), with “inconclusive”.
`COc1ccc2c3c(ccc2c1)N[C@H](C(=O)O)CC3`: the AC50 on Cytochrome P450 1A2 is 0.501 µM (inconclusive).
As for `Cc1ccc2nc(N(CCCN(C)C)C(=O)c3cc(-c4cccs4)nc4ccccc34)sc2c1`, in [1], the AC50 is 4.45 µM (active).
For `Cc1ccc2sc(N(CCCN(C)C)C(=O)c3ccc(S(=O)(=O)N4CCCCCC4)cc3)nc2c1C`, the EC50 in series [7] is 0.445 µM (active); in series [8], 9.3 µM (active). Besides, the AC50 in series [1] was 3.12 µM (active).
Regarding `CSc1nc2n(n1)C(c1cc(Br)ccc1F)C(C(=O)N(C)C)=C(C)N2` (stereo not drawn), the AC50 on Cytochrome P450 1A2 was 25.1 µM (inconclusive); at Cytochrome P450 3A4, 14.1 µM (inconclusive).
Regarding `COc1ccc(N2CCN(c3ncnc4c3cnn4-c3ccc(C)cc3C)CC2)cc1`, the EC50 in series [2] was > 260 µM (inactive).
The same measure, in the same setting: then `Cc1cc(C(=O)CN2C(=O)NC3(CCCCC3)C2=O)c(C)n1Cc1ccco1`, with 44 µM (active); and `COc1ccc(N=Nc2ccc(CO)cc2)cc1`, with > 260 µM (inactive).
Regarding `CC1CCC(C(=O)NC(C(=O)N2CCC(N3CCCCC3)CC2)C(C)C)CC1` (stereo not drawn), the AC50 on Cytochrome P450 2C19 (read-out: AC50) is 8.91 µM (inconclusive); on Cytochrome P450 3A4 it was 14.1 µM (inconclusive).
Regarding `CC(C)(C)c1ccc(COC(=O)CNC(=O)CNC(=O)Cc2ccccc2)cc1`, the AC50 on Cytochrome P450 2C19 (read-out: AC50) was 31.6 µM (inconclusive).
As for `O=[N+]([O-])c1ccc(C2CCCC/C2=N\OCc2cccc(F)c2)c([N+](=O)[O-])c1` (stereo not drawn), the EC50 in series [7] is 0.518 µM (active); in [8] it was > 60 µM (not active). Moreover, at Cytochrome P450 1A2, the AC50 was 15.8 µM (inconclusive).
On to `CCOC(=O)C(/C=N/c1ccc(C#N)cc1)=C(/O)OCC`, for which, in [2], the EC50 is > 260 µM (inactive).
With `COc1ccc(NS(=O)(=O)c2cccc(C(=O)N/N=C(\C)c3ccc(-n4ccnc4)cc3)c2)cc1`, in [1], the AC50 was > 195 µM (inactive).
For `COc1ccccc1-c1c[nH]nc1-c1ccc(OCc2ccccc2F)cc1O`, the AC50 in [1] is 4.88 µM (active).
